US20040086901A1, “Database for analyzing gene function and method of analyzing gene function by dspa” (priority 2000, published 2004)

Experiments:
Format in all cases: cell-based, mouse
[1] = test system: NIH3T3 cells overexpressing Gluco-corticoid-R; experiment: MTT cell viability, Gluco-corticoid-R overexpressing cells vs parental line; details: Gluco-corticoid-R high-expressing cells / parental cell line, 3 to 4 days
Procedure: (§1) With regard to the function-known genes, the genes shown in the left column of Table 2 were used. With regard to the drugs, those shown in Table 1 were dissolved in DMSO to an extent of 100-fold of the maximum concentration for the search of the drugs and used. With regard to the cells, incubated NIH3T3 or ras-NIH3T3 cells were used.
(§2) Full-length cDNA of each function-known genes was incorporated into an expression vector (pRc-CMV, etc.) and transfected into NIH3T3 cells by a common method. Transformed cells were isolated using the resistance to G-418 as an index and the expression of the transfected gene in each cell was investigated by Western blotting method to select a highly expressing line.
(§3) Cell viabilities were measured according to the following procedures.
(§4) 1) From the 2nd to the 11th rows of a 96-well plate were filled with DMEM (50 μl). The 12th row was filled with 100 μl of DMEM.
(§5) 2) The 1st row was filled with 98 μl of DMEM.
(§6) 3) Drugs (2 μl each) were added into the 1st row.
(§7) 4) Continuous double-dilution was conducted from the 1st to the 9th rows. Fifty μl were taken out from the 9th row and discarded. The plate was preserved in a CO2 incubator.
(§8) 5) Cells (each high-expressing cells and the parental cell line) were detached from the medium using a trypsin solution, suspended in 10% CS-DMEM and transferred to a test tube and cell numbers (cell/ml) were counted.
(§9) 6) The cells were diluted to a concentration of 1×10^5 cells/ml, and 50 μl of the cell suspension were added to the 1st to the 11th rows of the plate followed by gently stirring.
(§10) 7) The plate was transferred to the CO2 incubator and incubated for 3 to 4 days.
(§11) 8) MTT (5 mg/ml in PBS) (10 μl) was added to the 1st to the 12th rows of the plate and incubated in the CO2 incubator at 37° C. for 4 hours.
(§12) 9) A reaction stop solution (0.04N HCl in isopropanol) (150 μl) was added followed by mixing well and being allowed to stand at room temperature for about 2 hours.
(§13) 10) Coloration of formazan which was a metabolite of the MTT dye was measured using a microplate reader. The measurement wavelength was 574 nm and the reference wavelength was 655 nm. The 10th and the 11th rows of the plate were 100% controls and the 12th row was a 0% control.
(§14) As an index for the sensitivity of highly gene-expressing cells and the parental cell line to various drugs, each of the IC40 values thereof was specified and ratios of the IC40 values were calculated. […] After that, logarithmic values of ratios of IC40 values were calculated from each gene.

[2] = test system: NIH3T3 cells overexpressing HSP9O; experiment: MTT cell viability, HSP9O overexpressing cells vs parental line; details: HSP9O high-expressing cells / parental cell line, 3 to 4 days
Procedure: as §1, §2, §3, §4, §5, §6, §7, §8, §9, §10, §11, §12, §13
(§15) As an index for the sensitivity of highly gene-expressing cells and the parental cell line to various drugs, each of the IC40 values thereof was specified and ratios of the IC40 values were calculated. FIG. 2 and FIG. 3 are the examples where ratios of IC40 values were calculated from a curve showing the dependency on the concentration of the chemical versus the viability. After that, logarithmic values of ratios of IC40 values were calculated from each gene.

[3] = test system: NIH3T3 cells overexpressing Cip-1; experiment: MTT cell viability, Cip-1 overexpressing cells vs parental line; details: Cip-1 high-expressing cells / parental cell line, 3 to 4 days
Procedure: as §1, §2, §3, §4, §5, §6, §7, §8, §9, §10, §11, §12, §13, §14

[4] = test system: NIH3T3 cells overexpressing RhoA-DN; experiment: MTT cell viability, RhoA-DN overexpressing cells vs parental line; details: RhoA-DN high-expressing cells / parental cell line, 3 to 4 days
Procedure: as §1, §2, §3, §4, §5, §6, §7, §8, §9, §10, §11, §12, §13, §14

[5] = test system: NIH3T3 cells overexpressing CaMKIIa-Active; experiment: MTT cell viability, CaMKIIa-Active overexpressing cells vs parental line; details: CaMKIIa-Active high-expressing cells / parental cell line, 3 to 4 days
Procedure: as §1, §2, §3, §4, §5, §6, §7, §8, §9, §10, §11, §12, §13, §15

[6] = test system: NIH3T3 cells overexpressing ERK-DN; experiment: MTT cell viability, ERK-DN overexpressing cells vs parental line; details: ERK-DN high-expressing cells / parental cell line, 3 to 4 days
Procedure: as §1, §2, §3, §4, §5, §6, §7, §8, §9, §10, §11, §12, §13, §14

[7] = test system: NIH3T3 cells overexpressing p53(wt); experiment: MTT cell viability, p53(wt) overexpressing cells vs parental line; details: p53(wt) high-expressing cells / parental cell line, 3 to 4 days
Procedure: as §1, §2, §3, §4, §5, §6, §7, §8, §9, §10, §11, §12, §13, §14

Question: For `Nc1nc2nc[nH]c2c(=S)[nH]1` [6-TG, 6-thioguanine], which “logarithmic value of ratio of IC40 values” [1] is on record?
Answer: 0.09

Question: What about the “logarithmic value of ratio of IC40 values” [2] of the same compound?
Answer: 0.57

Question: And the “logarithmic value of ratio of IC40 values” [3]?
Answer: 0.47

Question: And the “logarithmic value of ratio of IC40 values” [4]?
Answer: 0.41

Question: And the “logarithmic value of ratio of IC40 values” [5]?
Answer: 0.62

Question: How did the “logarithmic value of ratio of IC40 values” [1] turn out when `O=CN/C=C/c1cc(O)ccc1O` [Erbstatin, erbstatin] was run?
Answer: 0.06

Question: What about the “logarithmic value of ratio of IC40 values” [2] of the same compound?
Answer: 0.26

Question: And the “logarithmic value of ratio of IC40 values” [6]?
Answer: 0.13

Question: What about the “logarithmic value of ratio of IC40 values” [7] of the same compound?
Answer: 0.17

Question: And the “logarithmic value of ratio of IC40 values” [4]?
Answer: −0.02

Question: And the “logarithmic value of ratio of IC40 values” [5]?
Answer: 0.21

Question: Which “logarithmic value of ratio of IC40 values” [1] does the source give for `C=C[C@@]1(C)CC(=O)[C@]2(O)[C@@]3(C)[C@@H](O)CCC(C)(C)[C@@H]3[C@H](O)[C@H](OC(C)=O)[C@@]2(C)O1` [Forskolin, forskolin] here?
Answer: 0.33

Question: And the “logarithmic value of ratio of IC40 values” [2]?
Answer: 0.94

Question: What about the “logarithmic value of ratio of IC40 values” [6] of the same compound?
Answer: 0.08

Question: What about the “logarithmic value of ratio of IC40 values” [7] of the same compound?
Answer: 0.98

Question: And the “logarithmic value of ratio of IC40 values” [4]?
Answer: −0.36

Question: What about the “logarithmic value of ratio of IC40 values” [5] of the same compound?
Answer: 0.43

Question: With `O=c1c(-c2ccc(O)cc2)coc2cc(O)cc(O)c12` [Genistein, genistein] as the compound, how does the “logarithmic value of ratio of IC40 values” [1] read?
Answer: 0.02

Question: And the “logarithmic value of ratio of IC40 values” [2]?
Answer: 0.41

Question: What about the “logarithmic value of ratio of IC40 values” [6] of the same compound?
Answer: 0.00

Question: What about the “logarithmic value of ratio of IC40 values” [7] of the same compound?
Answer: 0.26

Question: And the “logarithmic value of ratio of IC40 values” [4]?
Answer: 0.00

Question: What about the “logarithmic value of ratio of IC40 values” [5] of the same compound?
Answer: 0.23

Question: Which results are given for `COC(=O)[C@@]1(O)C[C@H]2O[C@]1(C)n1c3ccccc3c3c4c(c5c6ccccc6n2c5c31)C(=O)NC4` [K252a]?
Answer: logarithmic value of ratio of IC40 values [1]: 0.13; logarithmic value of ratio of IC40 values [2]: 0.56; logarithmic value of ratio of IC40 values [6]: 0.05; logarithmic value of ratio of IC40 values [7]: 0.05; logarithmic value of ratio of IC40 values [4]: 0.28; logarithmic value of ratio of IC40 values [5]: 0.10

Question: What does the source list for `C[C@@H]1O[C@@H](O[C@H]2C[C@@H](O)[C@]3(CO)[C@H]4[C@H](O)C[C@]5(C)[C@@H](C6=CC(=O)OC6)CC[C@]5(O)[C@@H]4CC[C@]3(O)C2)[C@H](O)[C@H](O)[C@H]1O` [Ouabain, ouabain]?
Answer: logarithmic value of ratio of IC40 values [1]: 0.04; logarithmic value of ratio of IC40 values [2]: 0.92; logarithmic value of ratio of IC40 values [6]: 0.48; logarithmic value of ratio of IC40 values [3]: 0.16; logarithmic value of ratio of IC40 values [4]: 0.45; logarithmic value of ratio of IC40 values [5]: 0.60

Question: What does the source list for `CN[C@@H]1C[C@H]2O[C@@](C)([C@@H]1OC)n1c3ccccc3c3c4c(c5c6ccccc6n2c5c31)C(=O)NC4` [Staurosporine]?
Answer: logarithmic value of ratio of IC40 values [1]: −0.28; logarithmic value of ratio of IC40 values [2]: 0.22; logarithmic value of ratio of IC40 values [7]: 0.07; logarithmic value of ratio of IC40 values [4]: 0.14; logarithmic value of ratio of IC40 values [5]: −0.04

Question: For `COC[C@H]1OC(=O)c2coc3c2[C@@]1(C)C1=C(C3=O)[C@@H]2CCC(=O)[C@@]2(C)C[C@H]1OC(C)=O` [Wortmannin, wortmannin], which “logarithmic value of ratio of IC40 values” [1] is on record?
Answer: 0.09

Question: And the “logarithmic value of ratio of IC40 values” [2]?
Answer: 0.18

Question: What about the “logarithmic value of ratio of IC40 values” [6] of the same compound?
Answer: −0.11

Question: And the “logarithmic value of ratio of IC40 values” [7]?
Answer: 0.40

Question: And the “logarithmic value of ratio of IC40 values” [4]?
Answer: 0.00

Question: And the “logarithmic value of ratio of IC40 values” [5]?
Answer: 0.18

Question: With `CC(C)(C)C(=O)Oc1ccc(S(=O)(=O)Nc2ccccc2C(=O)NCC(=O)O)cc1` [compound 5046] as the compound, how does the “logarithmic value of ratio of IC40 values” [2] read?
Answer: 0.52

Question: And the “logarithmic value of ratio of IC40 values” [3]?
Answer: −0.14

Question: And the “logarithmic value of ratio of IC40 values” [5]?
Answer: 0.35
